Values of other authors as cited in patent publication US20220280561A1, “COPPER-ATSM FOR TREATING NEURODEGENERATIVE DISORDERS ASSOCITED WITH MITOCHONDRIAL DYSFUNCTION” (RESEARCH INSTITUTE AT NATIONWIDE CHILDREN'S HOSPITAL, priority 2019, published 2022).

Tested on: ALS
Settings: ALS patients; cited from earlier work

SMILES	patient quality of life	lifespan
CC1=NN(c2ccccc2)C(=O)C1 [Edaravone]	significant impact on patient quality of life	
Nc1nc2ccc(OC(F)(F)F)cc2s1 [Riluzole]		modestly extending lifespan
